According to patent US20230167073A1 (Teijin Pharma Limited, priority 2020, published 2023):

These molecules were tested against T1, Human TRPC6 (Homo sapiens, UniProt Q9Y210) (assay: Evaluation of TRPC6 channel inhibitory activity (1), FLIPR Calcium 5 Assay Kit, OAG stimulation (Compound Nos. 1-1293)). Conditions: Human TRPC6 stably-expressing cells, OAG 30 μM, FLIPR Calcium 5 Assay Kit; read-out: Inhibitory activity (pIC50 class) (converted).
T1 construct: expressed in transfected cells
T1 sequence (Q9Y210 1-931): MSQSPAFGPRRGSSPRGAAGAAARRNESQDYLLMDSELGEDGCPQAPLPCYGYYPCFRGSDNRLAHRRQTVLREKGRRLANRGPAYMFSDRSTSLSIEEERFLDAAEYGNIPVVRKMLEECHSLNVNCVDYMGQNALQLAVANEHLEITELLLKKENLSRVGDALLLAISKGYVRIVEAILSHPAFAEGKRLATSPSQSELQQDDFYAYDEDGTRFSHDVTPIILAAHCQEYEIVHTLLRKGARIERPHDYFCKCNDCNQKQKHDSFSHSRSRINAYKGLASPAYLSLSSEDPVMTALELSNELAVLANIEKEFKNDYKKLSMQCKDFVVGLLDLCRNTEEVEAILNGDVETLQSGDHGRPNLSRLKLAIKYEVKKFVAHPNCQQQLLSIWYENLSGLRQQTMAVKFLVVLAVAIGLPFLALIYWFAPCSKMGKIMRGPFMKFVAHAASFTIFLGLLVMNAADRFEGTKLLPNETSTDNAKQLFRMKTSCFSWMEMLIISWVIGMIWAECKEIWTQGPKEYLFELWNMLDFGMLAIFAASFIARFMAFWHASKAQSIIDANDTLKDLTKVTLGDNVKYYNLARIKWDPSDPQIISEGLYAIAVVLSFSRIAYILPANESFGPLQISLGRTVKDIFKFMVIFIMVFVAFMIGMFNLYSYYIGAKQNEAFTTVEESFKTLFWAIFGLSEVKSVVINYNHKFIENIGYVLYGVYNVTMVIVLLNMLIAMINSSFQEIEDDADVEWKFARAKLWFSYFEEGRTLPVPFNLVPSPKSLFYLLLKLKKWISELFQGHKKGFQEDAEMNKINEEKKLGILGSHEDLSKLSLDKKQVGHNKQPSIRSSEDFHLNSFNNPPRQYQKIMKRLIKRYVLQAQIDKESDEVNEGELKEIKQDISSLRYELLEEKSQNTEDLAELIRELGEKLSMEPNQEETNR
Assay type: cell-based
Outline: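 Readout is pIC50 from four-parameter logistic fitting of inhibition of the OAG-evoked (30 μM final) fluorescence calcium signal. Human TRPC6 stable cells are dye-loaded with probenecid, and compound is applied 20 min ahead of agonist.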

IC50 | Structure (SMILES)
< 10 nM | Cn1nc(C2CC2)cc1Oc1cc(C#N)ccc1-c1ccc(CN)cn1 [compound 327, 4-[5-(aminomethyl)pyridin-2-yl]-3-(5-cyclopropyl-2-methylpyrazol-3-yl)oxybenzonitrile]
< 10 nM | Cc1cc(Oc2cc(C#N)ccc2-c2ncc(CN)cn2)cc(N2CCOCC2)n1 [compound 328, 4-[5-(aminomethyl)pyrimidin-2-yl]-3-(2-methyl-6-morpholin-4-ylpyridin-4-yl)oxybenzonitrile]
< 10 nM | Cc1cc(Oc2cc(C#N)ccc2-c2ccc(CN)cn2)cc(N2CCOCC2)n1 [compound 329, 4-[5-(aminomethyl)pyridin-2-yl]-3-(2-methyl-6-morpholin-4-ylpyridin-4-yl)oxybenzonitrile]
> 1000 nM | CCc1cc(Oc2cc(C#N)ccc2-c2ccc(CN)nc2)n(C)n1 [compound 330, 4-[6-(aminomethyl)pyridin-3-yl]-3-(5-ethyl-2-methylpyrazol-3-yl)oxybenzonitrile]
10 to 1000 nM | Cn1nc(C2CC2)cc1Oc1cc(C#N)ccc1-c1ccc(CN)nc1 [compound 331, 4-[6-(aminomethyl)pyridin-3-yl]-3-(5-cyclopropyl-2-methylpyrazol-3-yl)oxybenzonitrile]
10 to 1000 nM | Cc1cc(Oc2cc(C#N)ccc2-c2cnc(CN)cn2)cc(N2CCOCC2)n1 [compound 332, 4-[5-(aminomethyl)pyrazin-2-yl]-3-(2-methyl-6-morpholin-4-ylpyridin-4-yl)oxybenzonitrile]
< 10 nM | Cc1cc(Oc2cc(C#N)ccc2-c2ccc(CC(C)(C)N)cn2)cc(N2CCOCC2)n1 [compound 333, 4-[5-(2-amino-2-methylpropyl)pyridin-2-yl]-3-(2-methyl-6-morpholin-4-ylpyridin-4-yl)oxybenzonitrile]
< 10 nM | Cn1nc(C2CC2)cc1Oc1cc(C#N)ccc1-c1ccc(CC(C)(C)N)cn1 [compound 334, 4-[5-(2-amino-2-methylpropyl)pyridin-2-yl]-3-(5-cyclopropyl-2-methylpyrazol-3-yl)oxybenzonitrile]
< 10 nM | Cn1nc(C2CC2)cc1Oc1cc(C#N)ccc1-c1ccc(C(O)C(C)(C)N)cn1 (stereo not drawn) [compound 335, 4-[5-(2-amino-1-hydroxy-2-methylpropyl)pyridin-2-yl]-3-(5-cyclopropyl-2-methylpyrazol-3-yl)oxybenzonitrile]
< 10 nM | CCCCc1cc(Oc2cc(C#N)ccc2-c2ccc(C(O)C(C)(C)N)cn2)n(C)n1 (stereo not drawn) [compound 336, 4-[5-(2-amino-1-hydroxy-2-methylpropyl)pyridin-2-yl]-3-(5-butyl-2-methylpyrazol-3-yl)oxybenzonitrile]
< 10 nM | CCCCc1cc(Oc2cc(C#N)ccc2-c2ncc(C(O)CN)cn2)n(C)n1 (stereo not drawn) [compound 337, 4-[5-(2-amino-1-hydroxyethyl)pyrimidin-2-yl]-3-(5-butyl-2-methylpyrazol-3-yl)oxybenzonitrile]
< 10 nM | Cn1nc(-c2ccccn2)cc1Oc1cc(C#N)ccc1-c1ccc(CC(C)(C)N)cn1 [compound 338, 4-[5-(2-amino-2-methylpropyl)pyridin-2-yl]-3-(2-methyl-5-pyridin-2-ylpyrazol-3-yl)oxybenzonitrile]
10 to 1000 nM | Cc1nc(Oc2cc(C#N)ccc2-n2cc([C@@H](O)CN)cn2)cc(-c2ccccc2F)n1 [compound 339, 4-[4-[(1R)-2-amino-1-hydroxyethyl]pyrazol-1-yl]-3-[6-(2-fluorophenyl)-2-methylpyrimidin-4-yl]oxybenzonitrile]
10 to 1000 nM | Cc1nc(Oc2cc(C#N)ccc2-n2cc([C@@H](O)CN)cn2)cc(-c2ccccc2Cl)n1 [compound 340, 4-[4-[(1R)-2-amino-1-hydroxyethyl]pyrazol-1-yl]-3-[6-(2-chlorophenyl)-2-methylpyrimidin-4-yl]oxybenzonitrile]
< 10 nM | Cc1nc(Oc2cc(C#N)ccc2-n2cc([C@@H](O)CN)cn2)cc(-c2ccccc2C#N)n1 [compound 341, 4-[4-[(1R)-2-amino-1-hydroxyethyl]pyrazol-1-yl]-3-[6-(2-cyanophenyl)-2-methylpyrimidin-4-yl]oxybenzonitrile]
10 to 1000 nM | Cc1nc(Oc2cc(C#N)ccc2-n2cc([C@H](O)CN)cn2)cc(-c2ccccc2F)n1 [compound 342, 4-[4-[(1S)-2-amino-1-hydroxyethyl]pyrazol-1-yl]-3-[6-(2-fluorophenyl)-2-methylpyrimidin-4-yl]oxybenzonitrile]
10 to 1000 nM | Cc1nc(Oc2cc(C#N)ccc2-n2cc([C@H](O)CN)cn2)cc(-c2ccccc2Cl)n1 [compound 343, 4-[4-[(1S)-2-amino-1-hydroxyethyl]pyrazol-1-yl]-3-[6-(2-chlorophenyl)-2-methylpyrimidin-4-yl]oxybenzonitrile]
< 10 nM | Cc1nc(Oc2cc(C#N)ccc2-n2cc([C@H](O)CN)cn2)cc(-c2ccccc2C#N)n1 [compound 344, 4-[4-[(1S)-2-amino-1-hydroxyethyl]pyrazol-1-yl]-3-[6-(2-cyanophenyl)-2-methylpyrimidin-4-yl]oxybenzonitrile]
10 to 1000 nM | CCc1cc(Oc2cc(C#N)ccc2-c2ccc(OCCN)cn2)n(C)n1 [compound 345, 4-[5-(2-aminoethoxy)pyridin-2-yl]-3-(5-ethyl-2-methylpyrazol-3-yl)oxybenzonitrile]
< 10 nM | Cn1nc(-c2ccccc2)cc1Oc1cc(C#N)ccc1-c1cnc(CCN)nc1 [compound 346, 4-[2-(2-aminoethyl)pyrimidin-5-yl]-3 (2-methyl-5-phenylpyrazol-3-yl)oxybenzonitrile]
> 1000 nM | Cn1nc(C2CC2)cc1Oc1cc(C#N)ccc1-c1cnc(CCN)nc1 [compound 347, 4-[2-(2-aminoethyl)pyrimidin-5-yl]-3-(5-cyclopropyl-2-methylpyrazol-3 yl)oxybenzonitrile]
< 10 nM | Cn1nc(C2CC2)cc1Oc1cc(C#N)ccc1-c1ccc(OCCN)cn1 [compound 348, 4-[5-(2-aminoethoxy)pyridin-2-yl]-3-(5-cyclopropyl-2-methylpyrazol-3-yl)oxybenzonitrile]
> 1000 nM | Cc1cc(Oc2cc(C#N)ccc2-c2ccc(OCCN)cn2)n(C)n1 [compound 349, 4-[5-(2-aminoethoxy)pyridin-2-yl]-3-(2,5-dimethylpyrazol-3-yl)oxybenzonitrile]
10 to 1000 nM | Cc1cc(Oc2cc(C#N)ccc2-c2ccc(OCCN)cn2)cc(N2CCOCC2)n1 [compound 350, 4-[5-(2-aminoethoxy)pyridin-2-yl]-3-(2-methyl-6-morpholin-4-ylpyridin-4-yl)oxybenzonitrile]
10 to 1000 nM | Cc1nc(Oc2cc(C#N)ccc2-n2cc([C@@H](O)CN)cn2)cc(-c2ccccc2C(F)(F)F)n1 [compound 351, 4-[4-[(1R)-2-amino-1-hydroxyethyl]pyrazol-1-yl]-3-[2-methyl-6-[2-(trifluoromethyl)phenyl]pyrimidin-4-yl]oxybenzonitrile]
10 to 1000 nM | Cc1nc(Oc2cc(C#N)ccc2-n2cc([C@@H](O)CN)cn2)cc(-c2ccccn2)n1 [compound 352, 4-[4-[(1R)-2-amino-1-hydroxyethyl]pyrazol-1-yl]-3-(2-methyl-6-pyridin-2-ylpyrimidin-4-yl)oxybenzonitrile]
10 to 1000 nM | Cc1nc(Oc2cc(C#N)ccc2-n2cc([C@@H](O)CN)cn2)cc(-c2cccc(C(F)(F)F)c2)n1 [compound 353, 4-[4-[(1R)-2-amino-1-hydroxyethyl]pyrazol-1-yl]-3-[2-methyl-6-[3-(trifluoromethyl)phenyl]pyrimidin-4-yl]oxybenzonitrile]
10 to 1000 nM | Cc1nc(Oc2cc(C#N)ccc2-n2cc([C@H](O)CN)cn2)cc(-c2ccccc2C)n1 [compound 354, 4-[4-[(1S)-2-amino-1-hydroxyethyl]pyrazol-1-yl]-3-[2-methyl-6-(2-methylphenyl)pyrimidin-4-yl]oxybenzonitrile]
> 1000 nM | Cc1nc(Oc2cc(C#N)ccc2-n2cc([C@H](O)CN)cn2)cc(-c2ccccc2C(F)(F)F)n1 [compound 355, 4-[4-[(1S)-2-amino-1-hydroxyethyl]pyrazol-1-yl]-3-[2-methyl-6-[2-(trifluoromethyl)phenyl]pyrimidin-4-yl]oxybenzonitrile]
10 to 1000 nM | Cc1nc(Oc2cc(C#N)ccc2-n2cc([C@H](O)CN)cn2)cc(-c2ccccn2)n1 [compound 356, 4-[4-[(1S)-2-amino-1-hydroxyethyl]pyrazol-1-yl]-3-(2-methyl-6-pyridin-2-ylpyrimidin-4-yl)oxybenzonitrile]
